By pKd is commonly meant the Kd on a negative log10 scale, so that one unit is a factor of ten. Lower therefore signals a high Kd. What is called pIC50 is the negative decadic logarithm of the IC50, by convention in mol/L. Higher therefore signals a small IC50.

Structures are written as SMILES. pIC50, pKd: −log10 of the molar value.

Experiment [1] concerns the target T1, Tau-tubulin kinase 1 (Homo sapiens, UniProt Q5TCY1). In words: Binding affinity to phosphorylated TTBK1 (unknown origin) by SPR analysis. A general note: Surface plasmon resonance follows binding to a sensor surface in real time, without labels.
The nature of experiment [2]: Inhibition of FTK (unknown origin). Also on record: species or system Homo sapiens.
For experiment [3], the target named is T1, Tau-tubulin kinase 1. Nature of the experiment: Binding affinity to phosphorylated TTBK1 (unknown origin) assessed as association rate constant by SPR analysis.

T1 sequence (Q5TCY1 whole entry): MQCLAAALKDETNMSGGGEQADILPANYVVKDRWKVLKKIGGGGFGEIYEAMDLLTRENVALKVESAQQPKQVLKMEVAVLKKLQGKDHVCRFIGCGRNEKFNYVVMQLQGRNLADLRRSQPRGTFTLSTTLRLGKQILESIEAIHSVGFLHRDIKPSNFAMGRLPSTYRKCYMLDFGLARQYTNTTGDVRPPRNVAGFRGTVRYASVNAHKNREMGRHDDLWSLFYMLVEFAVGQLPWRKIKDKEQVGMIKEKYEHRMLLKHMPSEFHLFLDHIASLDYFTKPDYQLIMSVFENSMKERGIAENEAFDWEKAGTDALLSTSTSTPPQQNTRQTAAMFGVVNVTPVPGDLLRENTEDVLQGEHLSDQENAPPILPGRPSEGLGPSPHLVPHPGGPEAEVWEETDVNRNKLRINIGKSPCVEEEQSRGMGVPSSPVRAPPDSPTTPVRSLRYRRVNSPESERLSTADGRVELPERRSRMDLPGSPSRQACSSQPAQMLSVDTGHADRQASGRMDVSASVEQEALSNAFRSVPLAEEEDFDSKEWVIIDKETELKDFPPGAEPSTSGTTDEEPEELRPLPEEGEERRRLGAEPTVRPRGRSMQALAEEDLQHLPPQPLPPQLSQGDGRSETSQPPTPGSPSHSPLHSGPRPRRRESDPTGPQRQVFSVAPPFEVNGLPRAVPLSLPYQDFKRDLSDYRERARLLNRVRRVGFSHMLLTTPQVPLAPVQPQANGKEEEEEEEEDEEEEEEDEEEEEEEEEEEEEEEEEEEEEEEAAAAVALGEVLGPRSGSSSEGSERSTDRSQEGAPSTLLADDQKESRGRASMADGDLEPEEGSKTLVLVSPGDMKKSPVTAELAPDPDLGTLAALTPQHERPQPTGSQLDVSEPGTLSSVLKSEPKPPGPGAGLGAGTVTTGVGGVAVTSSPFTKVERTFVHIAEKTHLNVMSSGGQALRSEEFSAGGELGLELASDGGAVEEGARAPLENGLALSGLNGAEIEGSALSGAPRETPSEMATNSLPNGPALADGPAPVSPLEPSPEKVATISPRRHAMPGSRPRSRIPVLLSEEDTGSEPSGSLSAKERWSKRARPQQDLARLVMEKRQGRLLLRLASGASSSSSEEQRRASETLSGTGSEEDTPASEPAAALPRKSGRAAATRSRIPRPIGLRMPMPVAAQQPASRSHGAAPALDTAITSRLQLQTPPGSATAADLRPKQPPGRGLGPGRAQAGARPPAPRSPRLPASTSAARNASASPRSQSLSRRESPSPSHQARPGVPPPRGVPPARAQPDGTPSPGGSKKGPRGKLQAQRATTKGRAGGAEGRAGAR

Regarding `COC(=O)c1cc(Nc2ncnc3[nH]ccc23)ccc1Br`, the negative logarithm of the Kd (pKd) on Tau-tubulin kinase 1 [1] was 5.39.

The molecule `COc1cc2ncnc(Nc3cccc(O)c3)c2cc1OC` had a negative logarithm of the IC50 (pIC50) in experiment [2] of 4.96. Besides, at Tau-tubulin kinase 1 [3], the K was 6.8 ×10⁶ /s.

The values are drawn from ChEMBL document CHEMBL4325845, “Tau Tubulin Kinase 1 (TTBK1), a new player in the fight against neurodegenerative diseases” (Eur J Med Chem, 2019).
